From ChEMBL document CHEMBL4000156 (Eur J Med Chem, 2016)

Tests used:
RAW264.7 = assay: Antioxidant activity in LPS induced mouse RAW264.7 cells assessed as superoxide anion scavenging activity at 10 uM after 24 hrs by HE probe based HPLC-MS analysis relative to control; format: functional
[1] = target: Xanthine dehydrogenase/oxidase (Homo sapiens, UniProt P47989); assay: Inhibition of Xanthine oxidase (unknown origin) using xanthine as substrate preincubated for 3 mins followed by substrate addition measured every 15 secs for 7 mins by spectrophotometry
[2] = Antioxidant activity assessed as DPPH radical scavenging activity incubated for 30 mins under dark conditions by spectrophotometry; format: functional

Chain of Xanthine dehydrogenase/oxidase (P47989 whole entry): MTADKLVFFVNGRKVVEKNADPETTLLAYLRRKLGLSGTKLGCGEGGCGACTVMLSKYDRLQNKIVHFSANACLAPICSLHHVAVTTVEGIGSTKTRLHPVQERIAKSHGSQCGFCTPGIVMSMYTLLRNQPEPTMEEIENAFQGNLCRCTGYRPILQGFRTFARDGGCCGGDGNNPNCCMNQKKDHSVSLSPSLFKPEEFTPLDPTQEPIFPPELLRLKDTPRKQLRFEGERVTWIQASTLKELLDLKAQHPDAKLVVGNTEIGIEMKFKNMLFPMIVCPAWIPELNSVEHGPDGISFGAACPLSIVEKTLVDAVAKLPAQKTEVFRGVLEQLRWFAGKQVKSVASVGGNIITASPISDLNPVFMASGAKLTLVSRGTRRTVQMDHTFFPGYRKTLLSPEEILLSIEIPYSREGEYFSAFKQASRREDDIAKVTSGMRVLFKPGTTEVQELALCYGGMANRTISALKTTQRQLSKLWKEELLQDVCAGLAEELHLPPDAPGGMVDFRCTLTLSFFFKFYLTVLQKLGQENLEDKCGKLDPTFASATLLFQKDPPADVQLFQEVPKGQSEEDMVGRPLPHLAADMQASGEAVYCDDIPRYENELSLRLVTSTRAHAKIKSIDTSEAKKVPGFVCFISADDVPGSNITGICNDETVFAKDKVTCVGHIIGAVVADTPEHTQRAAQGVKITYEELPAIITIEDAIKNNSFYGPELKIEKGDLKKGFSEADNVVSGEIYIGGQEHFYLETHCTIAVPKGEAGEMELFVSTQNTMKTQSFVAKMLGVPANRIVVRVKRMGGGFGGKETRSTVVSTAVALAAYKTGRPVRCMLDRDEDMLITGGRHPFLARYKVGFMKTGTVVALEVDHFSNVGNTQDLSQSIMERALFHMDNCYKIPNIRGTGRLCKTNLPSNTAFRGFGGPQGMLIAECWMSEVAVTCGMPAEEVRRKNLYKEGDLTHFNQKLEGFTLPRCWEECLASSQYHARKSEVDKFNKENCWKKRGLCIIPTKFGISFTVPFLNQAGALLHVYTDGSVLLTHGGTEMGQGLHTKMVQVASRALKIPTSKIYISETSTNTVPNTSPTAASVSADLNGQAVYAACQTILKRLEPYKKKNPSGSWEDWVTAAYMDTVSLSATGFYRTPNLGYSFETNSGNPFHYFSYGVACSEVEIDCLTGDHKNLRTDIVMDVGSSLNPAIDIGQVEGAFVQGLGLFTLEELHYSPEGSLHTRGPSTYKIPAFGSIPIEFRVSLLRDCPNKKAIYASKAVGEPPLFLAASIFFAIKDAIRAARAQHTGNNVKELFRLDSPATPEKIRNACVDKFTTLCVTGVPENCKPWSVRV

Row | IC50 [1] [µM] | IC50 [2] [µM] | Compound | Activity (RAW264.7) [%]
1 |  |  | O=C(/C=C/c1ccc(O)c2oc(-c3ccc(O)c(O)c3)cc12)N[C@H](Cc1ccc(O)c(O)c1)C(=O)O | 80.81
2 |  |  | O=C(/C=C/c1ccc(O)c2oc(-c3ccc(O)c(O)c3)cc12)N[C@@H](Cc1ccc(O)cc1)C(=O)O | 83.41
3 |  |  | O=C(/C=C/c1ccc(O)c2oc(-c3ccc(O)c(O)c3)cc12)N[C@@H](Cc1ccccc1)C(=O)O | 81.27
4 | 8.26 | 6.87 | O=C(/C=C/c1ccc(O)c2oc(-c3ccc(O)c(O)c3)cc12)O[C@H](Cc1ccc(O)c(O)c1)C(=O)O | 37.82
5 | > 60 | > 100 | COC(=O)[C@H](C)NC(=O)/C=C/c1ccc(OC)c2oc(-c3ccc(OC)c(OC)c3)cc12 | 
6 |  |  | COC(=O)[C@H](Cc1ccc(O)c(O)c1)NC(=O)/C=C/c1ccc(O)c2oc(-c3ccc(O)c(O)c3)cc12 | 78.59
7 |  |  | COC(=O)[C@@H](Cc1ccc(O)c(O)c1)NC(=O)/C=C/c1ccc(O)c2oc(-c3ccc(O)c(O)c3)cc12 | 74.16
8 | > 60 | > 100 | COC(=O)[C@H](Cc1ccccc1)NC(=O)/C=C/c1ccc(OC)c2oc(-c3ccc(OC)c(OC)c3)cc12 | 
9 |  |  | C[C@H](NC(=O)/C=C/c1ccc(O)c2oc(-c3ccc(O)c(O)c3)cc12)C(=O)O | 41.65
10 |  |  | VITAMIN E | 53.2
11 |  |  | COC(=O)[C@H](C)NC(=O)/C=C/c1ccc(O)c2oc(-c3ccc(O)c(O)c3)cc12 | 60.54
12 | > 60 | > 100 | COC(=O)[C@@H](Cc1c[nH]c2ccccc12)NC(=O)/C=C/c1ccc(OC)c2oc(-c3ccc(OC)c(OC)c3)cc12 | 
